This is an account of results in US11691986B2, “PTEFB inhibiting macrocyclic compounds” (Bayer Aktiengesellschaft, priority 2017, dated 2023).

By Kd is commonly meant the free concentration of one partner at which half of the binding sites on the other are occupied at equilibrium, for simple one-to-one binding.

In one experiment the test system is A2780 cells. Kind of experiment: Proliferation assay, A2780 (Cell Titre-Glo). The experiment is classed as cell-based. To be noted: Homo sapiens; A2780, 72-hour exposure; read-out: Inhibition of A2780 cell proliferation IC50. How it is done: A2780 human ovarian carcinoma cells (ECACC #93112519) and non-adherent MOLM-13 human acute myeloid leukemia cells (DSMZ ACC 554) were seeded at a density of 3,000 cell/well (A2780) or 5,000 cells/well (MOLM-13) in a 96-well multititer plate in 150 μL of growth medium supplemented 10% fetal calf serum. After 24 hours, cell viability of one plate (zero-point plate) was determined with the Cell Titre-Glo Luminescent Cell Viability Assay (Promega), while the medium of the other plates was supplemented with the test substances in various concentrations (0 μM, as well as in the range of 0.0001-10 μM; the final concentration of the solvent dimethyl sulfoxide was adjusted to 0.1%) using a Hewlett-Packard HP D300 Digital Dispenser. Cell viability was assessed after 72-hour exposure with the Cell Titre-Glo Luminescent Cell Viability Assay (Promega). IC50 values (inhibitory concentration at 50% of maximal effect) were determined by means of a 4 parameter fit on measurement data which were normalized to vehicle (DMSO) treated cells (=100%) and measurement readings taken immediately before compound exposure (=0%).

For the next experiment, the target named is T1, CDK2/CycE (Homo sapiens, UniProt P24941).
T1 construct: GST; purchased ProQinase GmbH (Freiburg, Germany); host or cells: insect cells (Sf9)
Kind of experiment: CDK2/CycE high ATP kinase assay (TR-FRET). The following applies: 2 mM ATP, Method 2b. It counts as biochemical. How it is done: 2b. CDK2/CycE High ATP Kinase Assay
CDK2/CycE-inhibitory activity of compounds of the present invention at 2 mM adenosine-tri-phosphate (ATP) was quantified employing the CDK2/CycE TR-FRET (TR-FRET=Time Resolved Fluorescence Energy Transfer) assay as described in the following paragraphs.
Recombinant fusion proteins of GST and human CDK2 and of GST and human CycE, expressed in insect cells (Sf9) and purified by Glutathion-Sepharose affinity chromatography, were purchase from ProQinase GmbH (Freiburg, Germany). As substrate for the kinase reaction biotinylated peptide biotin-Ttds-YISPLKSPYKISEG (C-terminus in amid form) was used which can be purchased e.g. form the company JERINI peptide technologies (Berlin, Germany).
(§1) For the assay 50 nl of a 100 fold concentrated solution of the test compound in DMSO was pipetted into either a black low volume 384 well microtiter plate or a black 1536 well microtiter plate (both Greiner Bio-One, Frickenhausen, Germany), 2 μl of a solution of CDK2/CycE in aqueous assay buffer [50 mM Tris/HCl pH 8.0, 10 mM MgCl2, 1.0 mM dithiothreitol, 0.1 mM sodium ortho-vanadate, 0.01% (v/v) Nonidet-P40 (Sigma)] were added and the mixture was incubated for 15 min at 22° C. to allow pre-binding of the test compounds to the enzyme before the start of the kinase reaction. […] The concentration of CDK2/CycE was adjusted depending of the activity of the enzyme lot and was chosen appropriate to have the assay in the linear range, typical concentrations were about 10 ng/ml. The reaction was stopped by the addition of 3 μl of a solution of TR-FRET detection reagents (0.333 μM streptavidine-XL665 [Cisbio Bioassays, Codolet, France] and 1.67 nM anti-RB(pSer807/pSer811)-antibody from BD Pharmingen [#558389] and 2 nM LANCE EU-W1024 labeled anti-mouse IgG antibody [Perkin-Elmer, product no. AD0077, as an alternative a Terbium-cryptate-labeled anti-mouse IgG antibody from Cisbio Bioassays can be used]) in an aqueous EDTA-solution (167 mM EDTA, 0.2% (w/v) bovine serum albumin in 100 mM HEPES pH 7.5).
(§2) The resulting mixture was incubated 1 h at 22° C. to allow the formation of complex between the phosphorylated biotinylated peptide and the detection reagents. Subsequently the amount of phosphorylated substrate was evaluated by measurement of the resonance energy transfer from the Eu-chelate to the streptavidine-XL. Therefore, the fluorescence emissions at 620 nm and 665 nm after excitation at 350 nm was measured in a TR-FRET reader, e.g. a Pherastar (BMG Labtechnologies, Offenburg, Germany) or a Viewlux (Perkin-Elmer). The ratio of the emissions at 665 nm and at […] was taken as the measure for the amount of phosphorylated substrate. The data were normalised (enzyme reaction without inhibitor=0% inhibition, all other assay components but no enzyme=100% inhibition).
A general note: In TR-FRET formats the signal depends on donor and acceptor labels being close together.

The next experiment concerns the target T2, CDK9/CycT1 (Homo sapiens, UniProt P50750).
T2 construct: Recombinant full-length His-tagged human CDK9 and CycT1; His; purchased Life Technologies PV4131; host or cells: insect cells
Nature of the experiment: CDK9/CycT1 high ATP kinase assay (TR-FRET). It counts as biochemical. To be noted: 2 mM ATP; for IC50: Method 1b; for Selectivity high ATP CDK9 over high ATP CDK2: IC50 (high ATP CDK2)/IC50 (high ATP CDK9): minimal values where CDK9 IC50 is at the assay limit of about 1-2 nM. How it is done:
1b. CDK9/CycT1 High ATP Kinase Assay
CDK9/CycT1-inhibitory activity of compounds of the present invention at a high ATP concentration after preincubation of enzyme and test compounds was quantified employing the CDK9/CycT1 TR-FRET assay as described in the following paragraphs.
Recombinant full-length His-tagged human CDK9 and CycT1, expressed in insect cells and purified by Ni-NTA affinity chromatography, were purchased from Life Technologies (Cat. No PV4131). As substrate for the kinase reaction biotinylated peptide biotin-Ttds-YISPLKSPYKISEG (C-terminus in amide form) was used which can be purchased e.g. form the company JERINI peptide technologies (Berlin, Germany).
as §1, with “CDK9/CycT1” for “CDK2/CycE”, “in the range of 0.5 μg/ml.” for “about 10 ng/ml.”, “(0.33” for “(0.333”, “AD0077])” for “AD0077, as an alternative a Terbium-cryptate-labeled anti-mouse IgG antibody from Cisbio Bioassays can be used])”
as §2

The target in experiment [1] is T3, human PTEFb (CDK9/Cyclin T1) (Homo sapiens, UniProt P50750).
T3 construct: purchased ProQinase, Freiburg, Germany
Nature of the experiment: Surface Plasmon Resonance PTEFb. To be noted: SPR, 37° C.; for Target residence time: 1/koff; for Kd: * = arithmetic mean of more than one value, read-out: Equilibrium dissociation constant KD. The experiment is classed as binding. From the text: 8. Surface Plasmon Resonance PTEFb
The ability of the compounds according to the invention to bind human PTEFb may be determined using surface plasmon resonance (SPR). KD values and koff values may be measured using a Biacore® T200 instrument (GE Healthcare, Uppsala, Sweden).
For SPR measurements, recombinant human PTEFb (CDK9/Cyclin T1 recombinant human active protein kinase purchased from ProQinase, Freiburg, Germany) is immobilized using standard amine coupling (Johnsson B et al, Anal Biochem. 1991 Nov. 1; 198(2):268-77). Briefly, carboxymethylated dextran biosensor chips (CM7, GE Healthcare) are activated with N-ethyl-N′-(3-dimethylaminopropyl)-carbodiimide hydrochloride (EDC) and N-hydroxysuccinimide (NHS) according to the supplier's instructions. Human PTEFb is diluted in 1×HBS-EP+(GE Healthcare) and injected on the activated chip surface. Subsequently, a 1:1 solution of 1 M ethanolamine-HCl (GE Healthcare) and 1×HBS-EP is injected to block unreacted groups, resulting in approximately 4000 response units (RU) of immobilized protein. A reference surface is generated by treatment with NHS-EDC and ethanolamine-HCl. Compounds are dissolved in 100% dimethylsulfoxide (DMSO, Sigma-Aldrich, Germany) to a concentration of 10 mM and subsequently diluted in running buffer (1×HBS-EP+pH 7.4 [generated from HBS-EP+Buffer 10×(GE Healthcare): 0.1 M HEPES, 1.5 M NaCl, 30 mM EDTA and 0.5% v/v Surfactant P20], 1% v/v DMSO). For kinetic measurements, serial dilutions of compound (0.078 nM up to 25 nM) are injected over immobilized protein. Binding kinetics is measured at 37° C. with a flow rate of 100 μl/min in running buffer. Compound concentrations are injected for 70 s followed by a dissociation time of 1100 s. The resulting sensorgrams are double-referenced against the reference surface as well as against blank injections.
The double-referenced sensorgrams are fit to a simple reversible Langmuir 1:1 reaction mechanism as implemented in the Biacore® T200 evaluation software 2.0 (GE Healthcare). In cases were full compound dissociation has not occurred at the end of the dissociation phase, the Rmax parameter (response at saturation) is fit as local variable. In all other cases, Rmax is fit as global variable.

A further experiment deals with bronchospasms. The following applies: in vivo; cited from earlier work.

Molecules are shown by their SMILES. Where “and” joins values, the source holds several entries; their conditions need not be identical. Equal values may be shown once.

T2 sequence (P50750 whole entry): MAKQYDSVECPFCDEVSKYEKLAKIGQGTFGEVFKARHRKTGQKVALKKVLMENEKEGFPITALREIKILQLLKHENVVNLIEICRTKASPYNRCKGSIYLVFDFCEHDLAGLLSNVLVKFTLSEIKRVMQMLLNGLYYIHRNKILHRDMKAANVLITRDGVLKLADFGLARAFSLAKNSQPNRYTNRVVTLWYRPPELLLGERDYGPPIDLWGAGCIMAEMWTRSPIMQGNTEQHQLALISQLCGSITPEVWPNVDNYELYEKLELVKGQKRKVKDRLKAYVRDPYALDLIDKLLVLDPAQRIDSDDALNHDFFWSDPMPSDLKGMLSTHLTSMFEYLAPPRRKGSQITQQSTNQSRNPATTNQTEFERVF
T2 sequence (O60563 whole entry partner): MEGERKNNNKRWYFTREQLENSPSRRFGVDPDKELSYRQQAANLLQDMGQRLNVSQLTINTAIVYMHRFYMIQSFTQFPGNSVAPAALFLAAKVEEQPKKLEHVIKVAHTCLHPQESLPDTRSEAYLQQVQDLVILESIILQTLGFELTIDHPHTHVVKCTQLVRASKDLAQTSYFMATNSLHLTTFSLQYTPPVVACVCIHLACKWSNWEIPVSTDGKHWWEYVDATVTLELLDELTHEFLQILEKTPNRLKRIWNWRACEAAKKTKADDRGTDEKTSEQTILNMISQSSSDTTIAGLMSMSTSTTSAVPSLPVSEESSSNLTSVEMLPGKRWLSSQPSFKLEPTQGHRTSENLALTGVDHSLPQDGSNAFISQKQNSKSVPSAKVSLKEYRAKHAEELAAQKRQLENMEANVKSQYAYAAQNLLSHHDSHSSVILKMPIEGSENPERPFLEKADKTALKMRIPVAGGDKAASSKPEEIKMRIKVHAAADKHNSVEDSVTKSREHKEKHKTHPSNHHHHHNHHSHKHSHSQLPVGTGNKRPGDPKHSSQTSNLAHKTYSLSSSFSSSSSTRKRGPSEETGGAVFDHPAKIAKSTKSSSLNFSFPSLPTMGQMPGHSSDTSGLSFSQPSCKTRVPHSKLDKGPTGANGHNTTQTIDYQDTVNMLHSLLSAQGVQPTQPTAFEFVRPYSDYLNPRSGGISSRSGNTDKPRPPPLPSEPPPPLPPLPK
T3 sequence (P50750 whole entry): as the sequence (P50750 whole entry) above
T3 sequence (O60563 whole entry partner): as the sequence (O60563 whole entry partner) above

With `CS(=N)(=O)Cc1cc2nc(c1)OCCCCNc1cc(ccc1F)-c1cc(ncc1F)N2` (racemic) [Example 6, (rac)-3,20-difluoro-10-[(S-methylsulfonimidoyl)methyl]-13-oxa-5,7,18,24-tetraazatetracyclo[17.3.1.1^2,6.1^8,12]pentacosa-1(23),2(25),3,5,8(24),9,11,19,21-nonaene], the IC50 worked out at 6.7 nM with A2780 cells, 25 nM at CDK2/CycE and 4 nM at CDK9/CycT1. The “Selectivity high ATP CDK9 over high ATP CDK2: IC50 (high ATP CDK2)/IC50 (high ATP CDK9)” value (“Selectivity high ATP CDK9” below) at CDK9/CycT1 is recorded as 6.3.
As for `CS(=N)(=O)Cc1cc2cc(c1)OCCCCNc1cc(ccc1F)-c1nc(ncc1F)N2` (single isomer, unassigned) [Example 9, 3,20-difluoro-10-[(S-methylsulfonimidoyl)methyl]-13-oxa-5,7,18,25-tetraazatetracyclo[17.3.1.1^2,6.1^8,12]pentacosa-1(23),2(25),3,5,8(24),9,11,19,21-nonaene], the figures for the IC50 against CDK2/CycE and on CDK9/CycT1 were 85 nM and 2.3 nM, respectively. On CDK9/CycT1, the “Selectivity high ATP CDK9” value amounted to 37. In experiment [1] (* = arithmetic mean), this compound returned a Target residence time above 208 min. Moreover, the Kd in experiment [1] was 0.046 nM and 0.022 nM and 0.015 nM and 0.062 nM and 0.11 nM and 0.031 nM and 0.07 nM and 0.054 nM.
`CC(C)(C)OC(=O)N=S(C)(=O)Cc1cc2cc(c1)OCCCCCNc1cc(ccc1F)-c1nc(ncc1F)N2` (racemic) [Example 4, (rac)-tert-butyl [{[3,21-difluoro-13-oxa-5,7,19,26-tetraazatetracyclo[18.3.1.1^2,6.1^8,12]hexacosa-1(24),2(26),3,5,8(25),9,11,20,22-nonaen-10-yl]methyl}(methyl)oxido-λ^6-sulfanylidene]carbamate]: the IC50 in the experiment with A2780 cells amounted to 31 nM; on CDK2/CycE, 3670 nM; on CDK9/CycT1 it was 1.4 nM. The “Selectivity high ATP CDK9” value on CDK9/CycT1 came out at 2740.
Regarding `C[N+]1(C)[C@@H]2C[C@@H](OC(=O)C(O)(c3cccs3)c3cccs3)C[C@H]1[C@@H]1O[C@@H]12` [tiotropium], in the experiment on bronchospasms, the “protection against bronchospasms (duration)” value is “more than 6 hours”.
Consider `CS(=N)(=O)Cc1cc2cc(c1)OCCCCCNc1cc(ccc1F)-c1nc(ncc1F)N2` (racemic) [Example 5, (rac)-3,21-difluoro-10-[(S-methylsulfonimidoyl)methyl]-13-oxa-5,7,19,26-tetraazatetracyclo[18.3.1.1^2,6.1^8,12]hexacosa-1(24),2(26),3,5,8(25),9,11,20,22-nonaene], for which the IC50 in the experiment with A2780 cells came out at 3.4 nM; at CDK2/CycE it was 357 nM; against CDK9/CycT1 it was 1.6 nM. On CDK9/CycT1, the “Selectivity high ATP CDK9” value amounted to 216.
At CDK2/CycE, `CS(=N)(=O)Cc1cc2cc(c1)OCCCCNc1cc(ccc1F)-c1nc(ncc1F)N2` (single isomer, unassigned) [Example 10, 3,20-difluoro-10-[(S-methylsulfonimidoyl)methyl]-13-oxa-5,7,18,25-tetraazatetracyclo[17.3.1.1^2,6.1^8,12]pentacosa-1(23),2(25),3,5,8(24),9,11,19,21-nonaene] came in with an IC50 of 130 nM. In addition, at CDK9/CycT1, the IC50 was determined as 1.6 nM and the “Selectivity high ATP CDK9” value stood at 79. For the same compound, the Target residence time in experiment [1] (* = arithmetic mean) is on record as 37* min. The Kd in experiment [1] was determined as 0.15 nM. Besides, the “Dissociation rate constant koff” value in experiment [1] (* = arithmetic mean, < = below what is resolvable) is recorded as 4.5E−4* 1/s.
For the compound `CSCc1cc2cc(c1)OC(C)CCCNc1cc(ccc1F)-c1nc(ncc1F)N2` (racemic) [Example 7, (rac)-3,20-difluoro-14-methyl-10-[(methylsulfanyl)methyl]-13-oxa-5,7,18,25-tetraazatetracyclo[17.3.1.1^2,6.1^8,12]pentacosa-1(23),2(25),3,5,8(24),9,11,19,21-nonaene], the results for the IC50 in the experiment with A2780 cells, at CDK2/CycE and on CDK9/CycT1 were 71 nM, 2980 nM and 3.9 nM, respectively. For the same compound, at CDK9/CycT1, the “Selectivity high ATP CDK9” value is listed as 762.
